According to the supplement of paper PMC8960247:
Counter-ions that a name gives are not always drawn. ± gives the standard error.

Columns and labels:
[1] = test system: 621-102 (TSC2-deficient); test: relative viability vs DMSO; higher = less cytotoxic; details: serum: 10% FBS, 72 h
[2] = test system: 621-103 (TSC2-rescued); test: as above; details: serum: 10% FBS, 72 h
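Further: immortalized renal angiomyolipoma cells stably carrying empty vector or TSC2, dosed in 384-well plates in DMEM, viability normalized to vehicle-treated wells within each plate.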

| SMILES | relative viability ([1]; 0.0001 µM) [%] | relative viability ([1]; 0.001 µM) [%] | relative viability ([1]; 0.01 µM) [%] | relative viability ([1]; 0.1 µM) [%] | relative viability ([1]; 1 µM) [%] | relative viability ([1]; 10 µM) [%] | relative viability ([2]; 0.0001 µM) [%] | relative viability ([2]; 0.001 µM) [%] | relative viability ([2]; 0.01 µM) [%] | relative viability ([2]; 0.1 µM) [%] | relative viability ([2]; 1 µM) [%] | relative viability ([2]; 10 µM) [%] |
| --- | --- | --- | --- | --- | --- | --- | --- | --- | --- | --- | --- | --- |
| N=C(N)NC(=N)N1CCOCC1 [Moroxydine] | 109 ± 1.8 | 111 ± 1.4 | 111 ± 4.4 | 107 ± 1.3 | 109.9 ± 0.84 | 99.87 ± 0.55 | 87.36 ± 0.38 | 86.9 ± 5.6 | 96.1 ± 4.8 | 92.5 ± 0.95 | 92.6 ± 2.9 | 86.5 ± 2.3 |
| Cc1ccc(NC(=O)c2ccc(CN3CCN(C)CC3)cc2)cc1Nc1nccc(-c2cccnc2)n1 [Imatinib Mesylate] | 99 ± 2.9 | 113 ± 3.7 | 108 ± 3.2 | 111 ± 3.6 | 107 ± 3.1 | 94.78 ± 0.7 | 95.2 ± 5.4 | 90.4 ± 3.4 | 101.6 ± 0.44 | 97.9 ± 1.8 | 98.3 ± 4.3 | 94.8 ± 4.8 |
| Cc1nc(Nc2ncc(C(=O)Nc3c(C)cccc3Cl)s2)cc(N2CCN(CCO)CC2)n1 [Dasatinib] | 71.7 ± 5.2 | 85.1 ± 7.2 | 70.7 ± 7.3 | 67.6 ± 4.7 | 67.5 ± 5.2 | 49.9 ± 2.6 | 92.9 ± 1.8 | 79 ± 2 | 74.3 ± 4.4 | 73.9 ± 5.5 | 61.2 ± 4.1 | 47.4 ± 2 |
| CC(=O)O[C@H]1C(=O)[C@@]2(C)[C@H]([C@H](OC(=O)c3ccccc3)[C@]3(O)C[C@H](OC(=O)[C@H](O)[C@@H](NC(=O)c4ccccc4)c4ccccc4)C(C)=C1C3(C)C)[C@]1(OC(C)=O)CO[C@@H]1C[C@@H]2O [Paclitaxel] | 54.2 ± 1.8 | 46.8 ± 2.3 | 33.66 ± 0.22 | 33.1 ± 0.46 | 29.6 ± 1.3 | 31.1 ± 2.3 | 69 ± 1.5 | 59.3 ± 0.96 | 40.8 ± 0.42 | 34.5 ± 0.39 | 28.7 ± 0.81 | 42.3 ± 0.75 |
| Cn1c(N2CCCCS2(=O)=O)nc(C(=O)NCc2ccc(F)cc2)c(O)c1=O | 104 ± 2.9 | 106 ± 1.5 | 106 ± 1.5 | 102 ± 1.9 | 108.8 ± 0.34 | 99.97 ± 0.61 | 99.8 ± 2.4 | 105.9 ± 0.6 | 101 ± 2.4 | 101 ± 2.1 | 100.8 ± 0.82 | 100 ± 1.4 |
| CC(=O)c1c(C)c2cnc(Nc3ccc(N4CCNCC4)cn3)nc2n(C2CCCC2)c1=O | 103 ± 1.6 | 109.7 ± 0.24 | 110 ± 2.1 | 109 ± 5 | 115 ± 1.2 | 79 ± 4.2 | 102.3 ± 0.35 | 104.8 ± 0.95 | 100.9 ± 0.84 | 104.4 ± 0.59 | 106.6 ± 0.72 | 76.7 ± 1.6 |
| CC(C)(Oc1ccc(C2CC2(Cl)Cl)cc1)C(=O)O (stereo not given) [Ciprofibrate] | 105.1 ± 0.47 | 100 ± 4.4 | 103.6 ± 0.33 | 93.48 ± 0.86 | 97 ± 5.4 | 102 ± 1.7 | 107 ± 2.5 | 102 ± 3.9 | 98.7 ± 5 | 109.4 ± 0.22 | 103.1 ± 0.95 | 102 ± 1.3 |
| C#Cc1cccc(Nc2ncnc3cc(OCCOC)c(OCCOC)cc23)c1 [Erlotinib] | 106.7 ± 1 | 102 ± 3.1 | 107.7 ± 1 | 103 ± 1.4 | 97.8 ± 1.9 | 96.7 ± 3.3 | 99.81 ± 0.92 | 101 ± 1.1 | 104 ± 2.2 | 101.3 ± 0.39 | 101 ± 2.7 | 96.6 ± 3.3 |
| Nc1nc(N)c2nc(-c3cccc(O)c3)c(-c3cccc(O)c3)nc2n1 [TG100-115] | 98.9 ± 7.9 | 105 ± 4.8 | 110.59 ± 0.023 | 112 ± 1.9 | 111 ± 5.8 | 95.6 ± 3.2 | 99.62 ± 0.33 | 99.8 ± 1.2 | 106 ± 4.6 | 99.3 ± 0.84 | 99.5 ± 1.8 | 100.3 ± 1 |
| Nc1cc(C(Cl)=C(Cl)Cl)c(S(N)(=O)=O)cc1S(N)(=O)=O [Clorsulon] | 109 ± 2.7 | 111.6 ± 0.7 | 107 ± 1.5 | 101 ± 2.9 | 98.4 ± 1.1 | 106 ± 1.2 | 81.5 ± 3.3 | 86.2 ± 4 | 73.8 ± 6.7 | 88.2 ± 12 | 91.8 ± 5.8 | 79.6 ± 10 |
